Where a SMILES comes first, the peptide text is derived from it.
What was measured:
Assay in all cases: HLA class I binding assay (cell-free competition, fluorescence polarization)
HLA B*4402 = HLA B*4402 (Homo sapiens, UniProt P01889, A223V/A65T/A93T/A95T/D201E/D98Y/E176V/E187L/E204Q/E69K/G107R/H137Y/K202T/L105A/L119I/N104T/N87E/Q56L/Q94N/R106L/R155S/R180D/S101N/S121R/S35A/S48T/T118I/V36M/W191S/Y140D/Y91S)
HLA A*2402 = HLA A*2402 (Homo sapiens, UniProt P04439, D101N/D140Y/D185E/E176V/E190D/F33S/G103R/G107R/I119L/I121M/I306V/K335N/L105A/L180Q/L300P/N151K/N90K/Q86E/Q94H/R106L/R138H/R89G/T104I/T345S/V100E/W191G/Y123F)
HLA A*0201 = HLA A*0201 (Homo sapiens, UniProt P04439, D140Y/D185E/D98H/E176V/E277Q/G131W/G231S/I119V/I121R/I166T/I218V/L300P/L318F/N151K/N90K/P208A/P217A/Q86G/Q94H/R138H/R169H/T345S)

SMILES: CSCC[C@H](NC(=O)[C@H](CC(N)=O)NC(=O)[C@H](CCCCN)NC(=O)[C@H](CC(N)=O)NC(=O)[C@H](CCCCN)NC(=O)[C@H](Cc1ccccc1)NC(=O)[C@H](Cc1ccc(O)cc1)NC(=O)[C@H](CCC(=O)O)NC(=O)[C@@H](N)[C@@H](C)O)C(=O)O (H-TEYFKNKNM-OH)
- IC50 (HLA B*4402): 31.4 µM

SMILES: CC[C@H](C)[C@H](NC(=O)[C@H](Cc1ccccc1)NC(=O)[C@H](CCC(=O)O)NC(=O)[C@@H](NC(=O)[C@H](CC(=O)O)NC(=O)[C@H](CCC(=O)O)NC(=O)[C@H](CC(N)=O)NC(=O)[C@H](CCC(=O)O)NC(=O)[C@@H](N)CCSC)C(C)C)C(=O)O (H-MENEDVEFI-OH)
- IC50 (HLA B*4402): 36.9 µM

SMILES: CC[C@H](C)[C@H](NC(=O)[C@H](Cc1ccc(O)cc1)NC(=O)[C@@H]1CCCN1C(=O)[C@@H]1CCCN1C(=O)[C@H](CC(C)C)NC(=O)CNC(=O)[C@@H](NC(=O)[C@@H](NC(=O)[C@@H](N)Cc1ccc(O)cc1)[C@@H](C)O)[C@@H](C)CC)C(=O)O (H-YTIGLPPYI-OH)
- IC50 (HLA A*2402): 6.57 µM
- IC50 (HLA A*0201): 2.46 µM

SMILES: C[C@@H](O)[C@H](NC(=O)[C@H](CC(N)=O)NC(=O)[C@H](CC(N)=O)NC(=O)[C@H](CCC(=O)O)NC(=O)[C@@H](N)CC(N)=O)C(=O)N[C@H](C(=O)N[C@@H](Cc1ccc(O)cc1)C(=O)N[C@@H](CCC(N)=O)C(=O)N[C@@H](Cc1ccc(O)cc1)C(=O)O)[C@@H](C)O (H-NENNTTYQY-OH)
- IC50 (HLA B*4402): 18.4 µM

SMILES: CC(C)C[C@H](NC(=O)[C@H](CC(N)=O)NC(=O)[C@H](CCC(=O)O)NC(=O)[C@@H](N)CCC(=O)O)C(=O)N[C@@H](Cc1ccccc1)C(=O)N[C@@H](CCC(=O)O)C(=O)N[C@@H](Cc1c[nH]c2ccccc12)C(=O)N[C@@H](CO)C(=O)N[C@@H](CCCCN)C(=O)N[C@H](C(=O)O)[C@@H](C)O (H-EENLFEWSKT-OH; N-terminus assumed)
- IC50 (HLA B*4402): > 1000 µM

SMILES: C[C@@H](O)[C@H](NC(=O)[C@H](CC(N)=O)NC(=O)[C@H](Cc1ccc(O)cc1)NC(=O)[C@@H](NC(=O)[C@H](CO)NC(=O)[C@@H](NC(=O)[C@H](CO)NC(=O)[C@H](CCC(=O)O)NC(=O)[C@@H](N)CO)[C@@H](C)O)[C@@H](C)O)C(=O)O (H-SESTSTYNT-OH)
- IC50 (HLA B*4402): 103 µM

SMILES: CC[C@H](C)[C@H](NC(=O)[C@H](CCC(=O)O)NC(=O)[C@H](CC(N)=O)NC(=O)[C@H](CC(C)C)NC(=O)[C@H](CC(C)C)NC(=O)[C@@H]1CCCN1C(=O)[C@@H]1CCCN1C(=O)[C@H](CC(C)C)NC(=O)[C@@H](N)CCCCN)C(=O)O (H-KLPPLLNEI-OH)
- IC50 (HLA A*2402): 0.0887 µM
- IC50 (HLA A*0201): 2.66 µM

SMILES: CC[C@H](C)[C@H](NC(=O)[C@H](CCC(=O)O)NC(=O)[C@H](CCCCN)NC(=O)[C@H](CCC(=O)O)NC(=O)[C@H](CCC(=O)O)NC(=O)[C@@H](N)CCCCN)C(=O)N[C@@H](CC(N)=O)C(=O)N[C@@H](CC(=O)O)C(=O)N[C@@H](CCC(=O)O)C(=O)N[C@@H](Cc1ccc(O)cc1)C(=O)O (H-KEEKEINDEY-OH; N-terminus assumed)
- IC50 (HLA B*4402): > 1000 µM

SMILES: CC[C@H](C)[C@H](NC(=O)[C@H](CC(C)C)NC(=O)[C@@H](NC(=O)[C@@H](N)CO)[C@@H](C)CC)C(=O)N[C@@H](CO)C(=O)N[C@@H](CCCNC(=N)N)C(=O)N[C@@H](CC(C)C)C(=O)N[C@H](C(=O)N[C@@H](CC(C)C)C(=O)O)[C@@H](C)O (H-SILISRLTL-OH; N-terminus assumed)
- IC50 (HLA B*4402): > 1000 µM

SMILES: CC[C@H](C)[C@H](NC(=O)[C@H](CCC(=O)O)NC(=O)[C@H](CCC(=O)O)NC(=O)[C@@H](N)CC(N)=O)C(=O)N[C@H](C(=O)N[C@@H](CC(=O)O)C(=O)N[C@@H](CC(C)C)C(=O)N[C@@H](CC(C)C)C(=O)N[C@@H](CC(N)=O)C(=O)N[C@@H](CC(C)C)C(=O)O)[C@@H](C)CC (H-NEEIIDLLNL-OH)
- IC50 (HLA B*4402): 433 µM

SMILES: CC[C@H](C)[C@H](N)C(=O)N[C@@H](CCC(=O)O)C(=O)N[C@@H](CC(N)=O)C(=O)N[C@@H](CC(N)=O)C(=O)N[C@@H](CC(C)C)C(=O)N[C@@H](Cc1ccc(O)cc1)C(=O)N[C@@H](CCC(=O)O)C(=O)N[C@@H](CCCNC(=N)N)C(=O)N[C@@H](CC(C)C)C(=O)O (H-IENNLYERL-OH)
- IC50 (HLA B*4402): 60.1 µM

SMILES: CC[C@H](C)[C@H](NC(=O)[C@H](CCCCN)NC(=O)CNC(=O)CNC(=O)[C@H](CC(C)C)NC(=O)[C@H](CCC(N)=O)NC(=O)[C@H](CO)NC(=O)[C@H](CCC(=O)O)NC(=O)[C@@H](N)Cc1ccc(O)cc1)C(=O)O (H-YESQLGGKI-OH)
- IC50 (HLA B*4402): 66.3 µM

SMILES: CC[C@H](C)[C@H](NC(=O)[C@H](CC(C)C)NC(=O)[C@H](CC(=O)O)NC(=O)[C@H](CC(N)=O)NC(=O)[C@H](CCCNC(=N)N)NC(=O)[C@H](CO)NC(=O)[C@@H](NC(=O)[C@H](CCC(=O)O)NC(=O)[C@H](C)N)[C@@H](C)CC)C(=O)O (H-AEISRNDLI-OH)
- IC50 (HLA B*4402): 4.53 µM

SMILES: CC[C@H](C)[C@H](NC(=O)[C@@H]1CCCN1C(=O)[C@H](Cc1ccc(O)cc1)NC(=O)[C@H](CCC(N)=O)NC(=O)[C@H](CC(=O)O)NC(=O)[C@H](CO)NC(=O)[C@H](CCCCN)NC(=O)[C@H](CCSC)NC(=O)[C@@H](N)CCCCN)C(=O)O (H-KMKSDQYPI-OH)
- IC50 (HLA A*2402): 6.9 µM
- IC50 (HLA A*0201): 3.07 µM

SMILES: CC[C@H](C)[C@H](NC(=O)CNC(=O)[C@H](CO)NC(=O)[C@H](CC(N)=O)NC(=O)[C@H](CC(=O)O)NC(=O)[C@@H](N)Cc1ccccc1)C(=O)N[C@@H](CO)C(=O)N[C@@H](CC(C)C)C(=O)N[C@@H](CC(C)C)C(=O)O (H-FDNSGISLL-OH)
- IC50 (HLA B*4402): > 1000 µM
- IC50 (HLA A*0201): 229 µM

SMILES: CC[C@H](C)[C@H](NC(=O)[C@H](CCC(N)=O)NC(=O)[C@@H](NC(=O)[C@H](C)NC(=O)[C@H](CCCCN)NC(=O)[C@H](CC(C)C)NC(=O)[C@H](CC(N)=O)NC(=O)[C@H](CCC(=O)O)NC(=O)[C@@H](N)CC(=O)O)[C@@H](C)CC)C(=O)O (H-DENLKAIQI-OH)
- IC50 (HLA B*4402): 91.3 µM

SMILES: CC(C)C[C@H](NC(=O)[C@H](Cc1ccccc1)NC(=O)[C@@H]1CCCN1C(=O)[C@H](Cc1c[nH]cn1)NC(=O)[C@H](CCCCN)NC(=O)[C@@H](N)CO)C(=O)N[C@@H](CCCCN)C(=O)N[C@@H](CO)C(=O)NCC(=O)N[C@@H](Cc1ccccc1)C(=O)O (H-SKHPFLKSGF-OH; N-terminus assumed)
- IC50 (HLA B*4402): > 1000 µM

SMILES: CC[C@H](C)[C@H](NC(=O)[C@@H](NC(=O)[C@@H](NC(=O)[C@H](Cc1c[nH]cn1)NC(=O)[C@H](CC(=O)O)NC(=O)[C@H](CCCCN)NC(=O)[C@H](CCCCN)NC(=O)[C@H](CCC(=O)O)NC(=O)[C@@H](N)CCCCN)[C@@H](C)CC)C(C)C)C(=O)O (H-KEKKDHIVI-OH)
- IC50 (HLA B*4402): 64.6 µM

SMILES: N=C(N)NCCC[C@H](NC(=O)[C@H](Cc1ccc(O)cc1)NC(=O)[C@H](CCCCN)NC(=O)[C@@H]1CCCN1C(=O)[C@H](Cc1c[nH]cn1)NC(=O)[C@@H](N)CO)C(=O)N[C@@H](CC(N)=O)C(=O)N[C@@H](Cc1ccccc1)C(=O)N[C@@H](CCCCN)C(=O)N[C@@H](Cc1ccccc1)C(=O)O (H-SHPKYRNFKF-OH)
- IC50 (HLA A*2402): 16.6 µM

SMILES: CC[C@H](C)[C@H](NC(=O)[C@H](CC(N)=O)NC(=O)[C@H](Cc1ccc(O)cc1)NC(=O)[C@H](CCC(N)=O)NC(=O)[C@H](CC(=O)O)NC(=O)[C@H](CC(N)=O)NC(=O)[C@H](CC(N)=O)NC(=O)[C@H](Cc1ccc(O)cc1)NC(=O)[C@@H](N)CC(N)=O)C(=O)O (H-NYNNDQYNI-OH)
- IC50 (HLA A*2402): 6.54 µM
